According to patent US12377100B2 (GILEAD SCIENCES, INC., priority 2015, dated 2025):

What was measured:
[1] = Cytotoxicity assay, galactose-adapted HepG2 cells, Cell Titer Glo, 5 days; assay type: cell-based; details: human, galactose-adapted HepG2, five days incubation, intracellular ATP, read-out: CC50 GALHEPG2 CTG 5D
Text: (§1) To assess potential off-target toxicity of certain compounds disclosed herein, the in vitro cytotoxicity of those compounds was profiled using a panel of 5 cell lines with various tissue origins. Compound cytotoxicity was examined in hepatoma-derived Huh-7 and HepG2 cells, prostate carcinoma-derived PC-3 cells, lymphoma derived MT-4 cells and a normal diploid lung cell line MRC-5. HepG2 and PC-3 cells used were adapted to grow in glucose-free galactose-containing medium. These cells have a relatively higher sensitivity to inhibitors of mitochondrial oxidative phosphorylation compared to the same cells maintained in standard glucose-containing culture medium (Marroquin et al., Toxicol. Sci. 2007; 97 (2):539-47). Cell viability was determined by measuring intracellular ATP levels following five days of continuous incubation with test compounds.
(§2) The human hepatoma Huh-7 cell line was obtained from ReBLikon GmbH (Mainz, Germany) {20879}. The MT-4 cell line (HTLV-1 transformed, human T lymphoblastoid cells) was obtained from the NIH AIDS Reagent program (Bathesda, MD). The human hepatoblastoma cell line HepG2, human prostate carcinoma cell line PC-3, and normal fetal lung derived MRC-5 cells were obtained from the American Type Culture Collection (ATCC, Manassas, VA).
(§3) Huh-7 cells were maintained in Dulbecco's Modified Eagle Medium (DMEM) supplemented with 10% fetal bovine serum (FBS, Hyclone, Logan, UT), 1% non-essential amino acids (Gibco, Carlsbad, CA). PC-3 and HepG2 cells were adapted to grow in 0.2% galactose-containing, glucose-free Dulbecco's Modified Eagle Medium (DMEM) supplemented with 10% fetal bovine serum (FBS, Hyclone, Logan, UT), 1% non-essential amino acids (Gibco, Carlsbad, CA), 1% Pyruvate (Cellgro), 1% Glutamax (Invitrogen, Carlsbad, CA). Galactose-adapted cells were maintained in the same culture medium. MRC-5 cells were maintained in Eagle's Minimum Essential Medium (EMEM) supplemented with 10% fetal bovine serum (FBS, Hyclone, Logan, UT). MT-4 cells were maintained in RPMI-1640 supplemented with 10% fetal bovine serum (FBS, Hyclone, Logan, UT). All cell culture media were also supplemented with 100 Units/mL penicillin, 100 μg/mL streptomycin (Gibco).
(§4) Using a Biotek uFlow Workstation (Biotek, Winooski, VT), 1500 HepG2, 1500 PC-3, 500 Huh7 or 1500 MRC-5 cells in 90 μL of culture media were dispensed into each well of black polystyrene tissue culture-treated 384-well plates. Plated cells were incubated for 24 hours in an incubator at 37° C., 5% CO2 and 90% humidity. Compound serial dilutions were performed in 100% DMSO in 384-well polypropylene (high recovery) plates on a Biomek FX Workstation (Beckman Coulter, Fullerton, CA). After 3-fold serial dilutions, 0.4 μL of compounds were transferred into 384-well plates containing cells using a Velocity 11 system equipped with a Bravo 384-well pipettor. The DMSO concentration in the final assay plates was 0.44% (v/v). Cells were incubated with compound(s) for five days at 37° C. Puromycin (44 μM final concentration) and DMSO (0.44%, v/v) were used as a positive and negative controls, respectively
(§5) At the end of the incubation period the cytotoxicity assay was performed as follows: Media from 384-well cell culture plates were aspirated with a Biotek EL405 plate-washer (Biotek) and cells were washed with 100 μL PBS once. Twenty microliters of Cell Titer Glo (Promega, Madison, WI) was added to each well of the plates with a Biotek uFlow liquid dispenser. Plates were incubated for 15 minutes at room temperature before luminescence was measured with a Perkin Elmer Envision Plate Reader (Perkin Elmer, Waltham, MA).
(§6) CC50 values were defined as the compound concentration that caused a 50% decrease in luminescence signal, and were calculated by non-linear regression using Pipeline Pilot software by applying a four parameter fit equation (Accelrys, San Diego, CA). Individual CC50 values are listed as μM concentrations.

[2] = system: IFNα; experiment: PBMC cytokine profiling assay, IFNα induction; assay type: cell-based; details: PBMC, human PBMCs, 24 hours incubation
Outline: (§7)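 Cryopreserved healthy-donor human PBMCs (100k cells/well) were exposed for 24 h at 37 °C to a 10-point half-log compound series in 0.5% final DMSO. Secreted cytokines in the conditioned medium were quantified by MSD electrochemiluminescence, with TNFα samples diluted 1:9. AC50 was fitted by non-linear regression on percent activation normalised to plate controls.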

[3] = system: TNFα; experiment: PBMC cytokine profiling assay, TNFα induction; assay type: cell-based; details: PBMC, human PBMCs, 24 hours incubation
Outline: as §7

[4] = system: Huh-7 cells; experiment: Cytotoxicity assay, Huh-7 cells, Cell Titer Glo, 5 days; assay type: cell-based, human; details: Huh-7, five days incubation, intracellular ATP; read-out: CC50 HUH7 CTG 5D
Text: as §1, §2, §3, §4, §5, §6

[5] = system: MRC-5 cells; experiment: Cytotoxicity assay, MRC-5 cells, Cell Titer Glo, 5 days; assay type: cell-based, human; details: MRC-5, five days incubation, intracellular ATP; read-out: CC50 MRC5 CTG 5D
Text: as §1, §2, §3, §4, §5, §6

[6] = system: IL12p40; experiment: PBMC cytokine profiling assay, IL12-p40 induction; assay type: cell-based; details: PBMC, human PBMCs, 24 hours incubation
Outline: as §7

[7] = system: MT-4 cells; experiment: MT-4 cytotoxicity assay, Cell Titer Glo, 5 days; assay type: cell-based, human; details: MT-4, five days incubation, intracellular ATP; read-out: CC50 (MT4)
Text: as §1, §2, §3
(§8) For the MT-4 cytotoxicity assay, 0.4 μL of serially diluted compounds were added to 40 μl of cell maintenance media in 384-well black, solid bottom plate using a Biomek FX workstation (Beckman Coulter). Two thousand cells in 35 μL were added to each well using a Biotek uFlow Workstation (Biotek). Each assay plate contained 10 μM Puromycin (final concentration) and 0.5% DMSO in RPMI-1640 as positive and negative controls, respectively. Assay plates were incubated for five days at 37° C. in an incubator set at 5% CO2 and 90% humidity. After five days, 22 μL of Cell Titer Glo reagent (Promega) was added to the assay plates with a Biotek uFlow Workstation. Plates were subsequently placed on a Perkin Elmer Envision Plate Reader for five minutes before the luminescence signal was read.
as §6

[8] = Cytotoxicity assay, Huh-7 cells, Cell Titer Glo, 5 days; assay type: cell-based, human; details: human, Huh-7 cells; Huh-7, five days incubation, intracellular ATP; read-out: CC50 HUH7 CTG 5D
Text: as §1, §2, §3, §4, §5, §6

[9] = Cytotoxicity assay, MRC-5 cells, Cell Titer Glo, 5 days; assay type: cell-based, human; details: human, MRC-5 cells; MRC-5, five days incubation, intracellular ATP; read-out: CC50 MRC5 CTG 5D
Text: as §1, §2, §3, §4, §5, §6

[10] = Cytotoxicity assay, galactose-adapted PC-3 cells, Cell Titer Glo, 5 days; assay type: cell-based; details: human, galactose-adapted PC-3, five days incubation, intracellular ATP, read-out: CC50 GALPC3 CTG 5D
Text: as §1, §2
as §3, with “(Gibco). […]” for “(Gibco).”
as §5, with “Twenty microliters of Cell Titer Glo (Promega, Madison, WI) was added to each well of the plates with a Biotek uFlow liquid dispenser.” left out, “MA). […]” for “MA).”

[11] = MT-4 cytotoxicity assay, Cell Titer Glo, 5 days; assay type: cell-based, human; details: human, MT-4 cells; MT-4, five days incubation, intracellular ATP; read-out: CC50 (MT4)
Text: as §1, §2, §3, §8, §6

Compound | CC50 at 5 days [1] | AC50 [2] | AC50 [3] | CC50 [4] | CC50 [5] | AC50 [6] | CC50 [7] | AC50 ([2]; Homo sapiens, 24 h) | AC50 ([3]; Homo sapiens, 24 h) | CC50 at 5 days [8] | CC50 at 5 days [9] | AC50 ([6]; Homo sapiens, 24 h) | CC50 at 5 days [10] | CC50 at 5 days [11]
CCCC[C@](C)(CNC(C)=O)Nc1nc(N)nc2c(C)ccnc12 [Example 62] | 44.4 µM | > 50 µM | 1 µM | 44.4 µM | 44.4 µM | 0.91 µM | 19.2 µM | – | – | – | – | – | – | –
CCCC[C@H](CO)Nc1nc(N)nc2ccsc12 [Y, reference compound] | 0.19 µM | – | – | – | – | – | – | > 50 µM | 11.2 µM | 2.31 µM | 0.95 µM | 13 µM | 0.18 µM | 1.42 µM
CCC[C@@H](CO)Nc1nc(N)nc2cc(F)c(F)cc12 [X, reference compound] | 7.85 µM | – | – | – | – | – | – | 7.1 µM | 1.2 µM | 16.9 µM | 20.9 µM | 0.97 µM | 6.79 µM | 53.8 µM
